These results are taken from patent EP2218450A1, “Memantine for treating bipolar mood disorders resistant to conventional treatments” (Serra, Gino, priority 2009, dated 2010).

For assay [1], the system named is dopamine receptor sensitization. The note with it: cited from earlier work.
For the next assay, the system named is addictions. The conditions noted are these: cited from earlier work.
The next assay deals with NMDA glutamate receptor. The note with it: compared to more powerful NMDA antagonists such as phencyclidine, ketamine and MK-801; cited from earlier work.
For a further assay, the system named is OCD. The conditions noted are these: cited from earlier work.
The test system of another assay is bipolar patients. As for the experimental part: We report, in order to exemplify, the most clinically significant cases in bipolar patients (DSM IV-TR) resistant to hitherto available treatments.
Memantine was administered at 10-30 mg/day (according to the doses used for Alzheimer Disease and in many off-label uses of the drug in other psychiatric disorders) to 18 bipolar patients (mean age 42, range 24-61, SD 11): 13 BP type 1 (11 women and 2 men) and 5 BP type 2 (3 women and 2 men).
The Memantine treatment was added to the ongoing treatment which was left unmodified. The severity of the patients' condition before Memantine, and the change after Memantine addition was evaluated on the GCI-BP Overall Bipolar Illness scale: • GCI-BP Overall Bipolar Illness: Severity • 1. Normal, not ill; • 2. Minimally ill; • 3. Mildly ill; • 4. Moderately ill; • 5. Markedly ill; • 6. Severely ill; • 7. Very severely ill.
All patients have been followed-up for 24 weeks. […] Very much improved • 2. Much improved • 3. […] No change • 5. Minimally worse • 6. Much worse • 7. Very much worse

A further assay relates to depressive symptoms. The note with it: cited from earlier work.
For assay [2], the system named is Pervasive development disorders. The note with it: five open clinical studies and one case report; cited from earlier work.
The next assay concerns catatonic schizophrenia. The conditions noted are these: cited from earlier work.
For another assay, the system named is binge eating disorder. The conditions noted are these: five obese patients affected by binge eating disorder; cited from earlier work.
The mark [3] stands for this setting: at 24 weeks, Memantine 10-30 mg/day added to ongoing treatment, 18 bipolar patients.

Molecules are shown by their SMILES. Read-outs that look alike come from different tables or passages of the source.

For the compound `O=C(O)C1CN(CCCP(=O)(O)O)CCN1` (stereo not drawn) [CPP], in assay [1], the “prevention of dopamine D2 receptors sensitization induced by imipramine” value is listed as “fails to pevent”.
As to `C[C@]12N[C@H](Cc3ccccc31)c1ccccc12` [MK.801], in assay [1], the “prevention of dopamine receptor sensitization induced by electroconvulsive shock” value was “completely prevents” and the “prevention of dopamine receptor sensitization induced by imipramine” value is listed as “completely prevents”.
In the case of `CC12CC3CC(C)(C1)CC(N)(C3)C2` [Memantine], in the assay with addictions, the “benefit in nicotine or cocaine addiction” value is reported as “no benefit has been detected” and the “symptoms of heroin withdrawal” value is “effective in reducing the symptoms of heroin withdrawal”. For the same compound, the “symptoms of alcohol withdrawal syndrome” value in the assay on addictions (one study (41)) was “reduction of the symptoms of alcohol withdrawal syndrome”. The craving for alcohol entry with addictions (two studies (39, 40)) is recorded as “reduction in craving for alcohol”. In addition, the alcohol consumption result with addictions (two studies (42, 43), in one the effect did not significantly differ from placebo) is “reduction in alcohol consumption”. Besides, the “affinity for the receptor” value in the assay on NMDA glutamate receptor is reported as “low affinity”. The “patients with symptomatic improvements” value with OCD (case reports, three patients with OCD, 5-15 mg a day) is “Two”. The “patients with symptomatic improvement” value with OCD (open-label study, out of 14, Memantine 20 mg in combination with SSRIs) is 6 patients. Also, in the assay with bipolar patients (after 24 weeks of Memantine treatment, 18 bipolar patients), the “patients very much or much improved” value is listed as 72.2%. For the same compound, the “rapid cyclers that reached stability” value in the assay on bipolar patients (among the ten rapid cyclers, 24 weeks) was “six”. In the assay on bipolar patients (setting [3]), the “patients remained unchanged (score 4), GCI-BP overall Bipolar Illness: Change from preceding phase” value was 3 patients; the “patients scored 1 (very much improved), GCI-BP overall Bipolar Illness: Change from preceding phase” value was 9 patients; the “patients scored 2 (much improved), GCI-BP overall Bipolar Illness: Change from preceding phase” value is listed as 4 patients; the “patients scored 3 (minimally improved), GCI-BP overall Bipolar Illness: Change from preceding phase” value amounted to 2 patients. Besides, the “mean time to improvement” value with bipolar patients (range 6-132, SD 48,4, Memantine 10-30 mg/day) is reported as 55 days. In addition, the “effect on depressive symptoms” value with depressive symptoms (patient, 10 mg/die) is “improvement in the depressive symptoms”. Besides, the “effect on depressive symptoms” value in the assay on depressive symptoms (person, 20 mg/die in combination with conventional antidepressant treatment, within a week) is reported as “improvement in various depressive symptoms”. Besides, in [2], the effect on symptoms entry is “symptomatic improvement”. In the assay with catatonic schizophrenia (in combination with an atypical antipsychotic), the “effect in schizophrenia, controlled clinical trial” value is recorded as “No improvement was observed”. In addition, the “effect on symptoms of catatonic schizophrenia” value in the assay with catatonic schizophrenia (three case reports, 10 mg twice a day in two patients, 10 mg per day in the other) is “improvement in the symptoms”. Moreover, the “effect on appetite, binge eating and body weight” value in the assay on binge eating disorder was “diminished appetite, the disappearance of binge eating (in two out of five patients) and a reduction of body weight”.
